Reference: US10406151B2, “Method of inducing autophagy” (Mitsubishi Gas Chemical Company, Inc., priority 2016, dated 2019)

Tests used:
HeLa cells [1] = test: Evaluation of autophagy by fluorescence microscopy with Cyto-ID autophagy detection kit; type: cell-based; settings: culture for 1 day, fluorescence intensity same as rapamycin of the kit as reference
Method: (§1) The cells were cultured at 37° C. under 5% CO2. The culture medium used was D-MEM (Invitrogen-Gibco) to which 10% fetal bovine serum was added.
(§2) After culture for 1 day, the range in which autophagy occurred was measured by fluorescence microscopic observation using a Cyto-ID (registered trademark) autophagy detection kit (Cosmo Bio Co., Ltd.). […] Similarly, the 50% cell mortality concentration was also determined from the slope using a Cell Counting Kit-8 (Dojindo Laboratories Co., Ltd.), which is kit for measuring cell counts.

HeLa cells [2] = settings: for 50% cell mortality concentration: culture for 1 day, determined from the slope, Cell Counting Kit-8
Method: as §1, §2

Structure (SMILES) | concentration inducing autophagy equal to rapamycin reference (HeLa cells [1]) | 50% cell mortality concentration (HeLa cells [2]) | toxicity among the pyrroloquinoline quinone species (in words) (HeLa cells [2]; conclusion from Table 1)
O=C(O)c1cc(C(=O)O)c2c(n1)c(O)c(O)c1cc(C(=O)O)[nH]c12 [Example 3, 4,5-Dihydroxy-1H-pyrrolo[2,3-f]quinoline-2,7,9-tricarboxylic Acid] | 12.5 mg/L | 48 mg/L | 
C[S+](C)[O-] [comparative example 1, dimethyl sulfoxide, reference compound] | at least 1000 mg/L | 674 mg/L | 
COC(=O)c1cc(C(=O)OC)c2c(n1)C(=O)C(=O)c1cc(C(=O)OC)[nH]c1-2 [Example 2, Trimethyl 4,5-Dioxo-4,5-dihydro-1H-pyrrolo[2,3-f]quinoline-2,7,9-tricarboxylate] | 0.8 mg/L | 16 mg/L | 
O=C(O)c1cc(C(=O)O)c2c(n1)C(=O)C(=O)c1cc(C(=O)O)[nH]c1-2 [Example 1, Disodium 4,5-Dioxo-4,5-dihydro-1H-pyrrolo[2,3-f]quinoline-2,7,9-tricarboxylic Acid] | 0.8 mg/L | 123 mg/L | 
COC(=O)c1cc(C(=O)OC)c2c(n1)C(=O)C(OC)(OC)c1cc(C(=O)OC)[nH]c1-2 [Example 5, Trimethyl 4,4-Dimethoxy-5-oxo-4,5-dihydro-1H-pyrrolo[2,3-f]quinoline-2,7,9-tricarboxylate] | 0.8 mg/L | at least 1000 mg/L | lowest toxicity
